# From paper PMC10609963, “Targeting Lactate Dehydrogenase-B as a Strategy to Fight Cancer: Identification of Potential Inhibitors by In Silico Analysis and In Vitro Screening” (Pharmaceutics, 2023)
# Where two headings read alike, the source gives them in different places.
# Legend:
# Recombinant human LDH-B [1] = molecular target: T1, Recombinant human LDH-B (Homo sapiens, UniProt P07195); assay: NBT/PMS end-point colorimetric assay, 96-well, lactate to pyruvate; assay type: biochemical
# T1 construct: gene LDHB; commercial recombinant protein (R&D Systems); homotetramer (LDH-1)
# T1 sequence (P07195 2-334): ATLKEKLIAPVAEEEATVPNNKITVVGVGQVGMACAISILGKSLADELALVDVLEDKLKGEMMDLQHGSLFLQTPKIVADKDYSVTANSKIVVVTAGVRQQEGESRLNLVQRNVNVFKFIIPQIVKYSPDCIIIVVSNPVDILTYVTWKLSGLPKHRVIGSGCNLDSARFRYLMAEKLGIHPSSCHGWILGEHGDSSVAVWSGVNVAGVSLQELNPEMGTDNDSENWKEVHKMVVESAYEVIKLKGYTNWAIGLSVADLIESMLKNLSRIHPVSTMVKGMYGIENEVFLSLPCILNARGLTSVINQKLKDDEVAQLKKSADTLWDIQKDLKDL
# Recombinant human LDH-B [2] = molecular target: T1, Recombinant human LDH-B; assay: NBT/PMS colorimetric kinetics, mixed-model inhibition fit; assay type: biochemical
# Source text: NBT/PMS colorimetric kinetics, mixed-model inhibition fit on Recombinant human LDH-B
# C[C@H](O)C(=O)O = test system: T2, C[C@H](O)C(=O)O; assay: NBT/PMS colorimetric kinetics, Michaelis-Menten fit; assay type: biochemical, Homo sapiens; conditions: 1 mM NAD+, no inhibitor (control), pH 9.6, room temperature
# T2 construct: commercial recombinant protein (R&D Systems); homotetramer (LDH-1)
# Source text: (§1) NBT/PMS colorimetric kinetics, Michaelis-Menten fit on Recombinant human LDH-B
# [3] = test system: T3, NC(=O)c1ccc[n+]([C@@H]2O[C@H](COP(=O)(O)OP(=O)(O)OC[C@H]3O[C@@H](n4cnc5c(N)ncnc54)[C@H](O)[C@@H]3O)[C@@H](O)[C@H]2O)c1; assay: as above; assay type: biochemical, Homo sapiens; conditions: 25 mM sodium lactate, no inhibitor (control), pH 9.6, room temperature, varied: cofactor
# T3 construct: commercial recombinant protein (R&D Systems); homotetramer (LDH-1)
# Source text: as §1
Molecule,IC50 (Recombinant human LDH-B [1]),Ki (Recombinant human LDH-B [2]; read-out: Tucatinib / Lactate),Ki (Recombinant human LDH-B [2]; read-out: Capmatinib / Lactate),Km (C[C@H](O)C(=O)O),Vmax (C[C@H](O)C(=O)O),Km [3],Vmax [3]
"Cc1cc(Nc2ncnc3ccc(NC4=NC(C)(C)CO4)cc23)ccc1Oc1ccn2ncnc2c1 [compound 1, Tucatinib]",502 µM,2960 µM,–,–,–,–,–
"CNC(=O)c1ccc(-c2cnc3ncc(Cc4ccc5ncccc5c4)n3n2)cc1F [compound 2, Capmatinib]",512 µM,–,2690 µM,–,–,–,–
Recombinant human LDH-B (Homo sapiens),–,–,–,18.5 mM,1050 µM/min,0.311 mM,1040 µM/min
